Series [1] relates to A549. Put plainly: Antiproliferative activity against human A549 cells assessed as reduction in cell viability incubated for 48 hrs by MTT assay. The series is classed as functional, cell-based. The following applies: A549, 48 h.
In series [2] the test system is MDA-MB-435. As to the kind of experiment: Antiproliferative activity against human MDA-MB-435 cells. In kind it is functional, cell-based.
The subject of series [3] is HCT-116. Put plainly: Antiproliferative activity against human HCT-116 cells assessed as reduction in cell viability incubated for 48 hrs by MTT assay. In kind it is functional, cell-based. The following applies: HCT-116, 48 h.
Series [4] concerns A549. As to the kind of experiment: Antiproliferative activity against human A549 cells. The series is classed as functional, cell-based.
In series [5] the test system is HCT-116. As to the kind of experiment: Antiproliferative activity against human HCT-116 cells. In kind it is functional, cell-based.
The nature of series [6]: Solubility of compound in water. In kind it is physicochemical.
Series [7] deals with MDA-MB-435. Put plainly: Cytotoxicity against human MDA-MB-435 cells assessed as reduction in cell viability measured after 24 hrs by MTT assay. In kind it is functional, cell-based. The settings on record: MDA-MB-435, 24 h.
Series [8] deals with HCT-116. As to the kind of experiment: Cytotoxicity against human HCT-116 cells assessed as reduction in cell viability measured after 24 hrs by MTT assay. The following applies: HCT-116, 24 h. In kind it is functional, cell-based.
Series [9] concerns A549. Put plainly: Cytotoxicity against human A549 cells assessed as reduction in cell viability measured after 24 hrs by MTT assay. The series is classed as functional, cell-based. The following applies: A549, 24 h.
Series [10] has as its system MCF7. Put plainly: Antiproliferative activity against human MCF7 cells assessed as reduction in cell viability incubated for 48 hrs by MTT assay. In kind it is functional, cell-based. The settings on record: MCF7, 48 h.
The nature of series [11]: Solubility of compound in water incubated for 24 hrs by HPLC-UV analysis. In kind it is physicochemical.
The test system of series [12] is HCCLM9. As to the kind of experiment: Antiproliferative activity against human HCCLM9 cells assessed as reduction in cell growth incubated for 48 hrs by CCK-8 assay. The series is classed as functional, cell-based. The settings on record: HCCLM9, 48 h.
Series [13] concerns HepG2. As to the kind of experiment: Antiproliferative activity against human HepG2 cells assessed as reduction in cell viability incubated for 48 hrs by CCK-8 assay. In kind it is functional, cell-based. The following applies: HepG2, 48 h.
The subject of series [14] is Huh-7. Put plainly: Antiproliferative activity against human Huh-7 cells assessed as reduction in cell viability incubated for 48 hrs by CCK-8 assay. The series is classed as functional, cell-based. The settings on record: Huh-7, 48 h.
For series [15], the system named is HCT-116. Put plainly: Antiproliferative activity against human HCT-116 cells assessed as reduction in cell viability incubated for 48 hrs by CCK-8 assay. The series is classed as functional, cell-based. The following applies: HCT-116, 48 h.
Series [16] has as its system SW-620. Put plainly: Cytotoxicity against human SW-620 cells assessed as reduction in cell viability incubated for 48 hrs by CCK-8 assay. The settings on record: SW-620, 48 h. The series is classed as functional, cell-based.
Series [17] relates to MDA-MB-231. Put plainly: Antiproliferative activity against human MDA-MB-231 cells assessed as reduction in cell viability incubated for 48 hrs by CCK-8 assay. In kind it is functional, cell-based. The settings on record: MDA-MB-231, 48 h.
In series [18] the test system is HepG2. Put plainly: Antiproliferative activity against human HepG2 cells assessed as reduction in cell viability incubated for 24 hrs by MTT assay. The following applies: HepG2, 24 h. In kind it is functional, cell-based.
In series [19] the test system is MCF7. As to the kind of experiment: Antiproliferative activity against human MCF7 cells assessed as reduction in cell viability incubated for 24 hrs by MTT assay. The series is classed as functional, cell-based. The following applies: MCF7, 24 h.
Series [20] can be described thus: Antiproliferative activity against human HUVEC cells. In kind it is toxicity, cell-based.
For series [21], the system named is MCF7. Put plainly: Antiproliferative activity against human MCF7 cells. The series is classed as functional, cell-based.
Series [22] deals with MCF7. As to the kind of experiment: Cytotoxicity against human MCF7 cells assessed as reduction in cell viability incubated for 48 hrs by MTT assay. In kind it is functional, cell-based. The settings on record: MCF7, 48 h.
Series [23] has as its system NCI-H460. As to the kind of experiment: Cytotoxicity against human NCI-H460 cells assessed as reduction in cell viability incubated for 48 hrs by MTT assay. The series is classed as functional, cell-based. The following applies: NCI-H460, 48 h.
Series [24] relates to HCT-15. Put plainly: Cytotoxicity against human HCT-15 cells assessed as reduction in cell viability incubated for 48 hrs by MTT assay. The series is classed as functional, cell-based. The settings on record: HCT-15, 48 h.
For series [25], the system named is SF-268. Put plainly: Cytotoxicity against human SF-268 cells assessed as reduction in cell viability incubated for 48 hrs by MTT assay. The following applies: SF-268, 48 h. The series is classed as functional, cell-based.
Series [26] has as its system DU-145. Put plainly: Cytotoxicity against human DU-145 cells assessed as cell growth inhibition measured after 48 hrs by MTT assay. In kind it is functional, cell-based. The following applies: DU-145, 48 h.
Series [27] addresses Histone deacetylase 1 (Homo sapiens, UniProt Q13547). As to the kind of experiment: Inhibition of HDAC1 (unknown origin).
Series [28] has as its target Histone deacetylase 2 (Homo sapiens, UniProt Q92769). As to the kind of experiment: Inhibition of HDAC2 (unknown origin).
The test system of series [29] is HGC-27. Put plainly: Antiproliferative activity against human HGC-27 cells assessed as reduction in cell viability measured after 48 hrs by MTT assay. In kind it is functional, cell-based. The following applies: HGC-27, 48 h.
In series [30] the test system is PC-9. As to the kind of experiment: Cytotoxicity against human PC-9 cells assessed as reduction in cell viability incubated for 72 hrs by MTT assay. In kind it is functional, cell-based. The settings on record: PC-9, 72 h.
Series [31] concerns A549. Put plainly: Cytotoxicity against human A549 cells assessed as reduction in cell viability incubated for 72 hrs by MTT assay. In kind it is functional, cell-based. The settings on record: A549, 72 h.
For series [32], the system named is PC-3. Put plainly: Cytotoxicity against human PC-3 cells assessed as reduction in cell viability measured after 72 hrs by MTT assay. In kind it is functional, cell-based. The settings on record: PC-3, 72 h.
The test system of series [33] is MCF7. As to the kind of experiment: Cytotoxicity against human MCF7 cells assessed as reduction in cell viability measured after 72 hrs by MTT assay. The series is classed as functional, cell-based. The settings on record: MCF7, 72 h.
The test system of series [34] is HCT-116. Put plainly: Cytotoxicity against human HCT-116 cells assessed as reduction in cell viability incubated for 72 hrs by MTT assay. In kind it is functional, cell-based. The settings on record: HCT-116, 72 h.
The test system of series [35] is A549. As to the kind of experiment: Cytotoxicity against human A549 cells assessed as reduction in cell viability measured after 72 hrs by MTT assay. The series is classed as functional, cell-based. The settings on record: A549, 72 h.
Series [36] concerns MDA-MB-435. Put plainly: Cytotoxicity against human MDA-MB-435 cells assessed as reduction in cell viability incubated for 72 hrs by MTT assay. The series is classed as functional, cell-based. The following applies: MDA-MB-435, 72 h.

In brackets after ≈: the same amount, converted by molar mass.

Sequence of Histone deacetylase 1 (Q13547 whole entry): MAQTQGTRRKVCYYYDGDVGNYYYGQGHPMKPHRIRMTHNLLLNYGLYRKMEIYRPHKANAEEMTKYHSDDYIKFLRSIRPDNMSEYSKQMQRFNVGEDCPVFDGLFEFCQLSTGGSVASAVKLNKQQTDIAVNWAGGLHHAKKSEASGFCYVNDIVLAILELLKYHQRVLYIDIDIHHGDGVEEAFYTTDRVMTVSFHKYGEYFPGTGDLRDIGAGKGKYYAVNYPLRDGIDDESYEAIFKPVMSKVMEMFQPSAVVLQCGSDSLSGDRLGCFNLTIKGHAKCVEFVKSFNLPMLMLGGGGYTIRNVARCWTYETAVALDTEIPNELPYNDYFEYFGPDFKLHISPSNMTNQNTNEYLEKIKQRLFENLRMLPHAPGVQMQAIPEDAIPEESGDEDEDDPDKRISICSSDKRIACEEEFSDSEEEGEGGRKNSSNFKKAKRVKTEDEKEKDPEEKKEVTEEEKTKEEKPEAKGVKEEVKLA
Sequence of Histone deacetylase 2 (Q92769 whole entry): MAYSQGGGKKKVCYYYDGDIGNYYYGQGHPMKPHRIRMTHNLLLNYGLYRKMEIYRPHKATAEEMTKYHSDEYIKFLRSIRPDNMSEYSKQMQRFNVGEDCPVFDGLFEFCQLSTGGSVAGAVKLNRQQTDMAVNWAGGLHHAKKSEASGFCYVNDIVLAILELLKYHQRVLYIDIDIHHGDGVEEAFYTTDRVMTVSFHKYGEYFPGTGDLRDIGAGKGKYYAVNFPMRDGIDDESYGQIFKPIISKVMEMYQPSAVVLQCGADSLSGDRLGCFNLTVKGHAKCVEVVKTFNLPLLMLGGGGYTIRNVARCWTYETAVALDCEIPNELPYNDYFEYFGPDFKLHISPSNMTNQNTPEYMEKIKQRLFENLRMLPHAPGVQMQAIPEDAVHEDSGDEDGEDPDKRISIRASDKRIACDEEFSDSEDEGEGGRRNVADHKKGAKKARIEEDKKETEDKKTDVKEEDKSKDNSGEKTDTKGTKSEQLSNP

Turning to `CN1c2ccccc2C(=O)N2CCc3c([nH]c4c(Cl)cccc34)C21` (configuration not stated), the IC50 was 2550 nM in series [1], below 3 nM in [2] and below 3 nM in series [3].
With `CN1c2ccccc2C(=O)N2CCc3c([nH]c4c([N+](=O)[O-])cc([N+](=O)[O-])cc34)C21` (configuration not stated), the IC50 in series [1] was above 200000 nM; in [2], above 200000 nM; in series [3], below 200000 nM.
Consider `CN1c2ccccc2C(=O)N2CCc3c([nH]c4ccc(O)cc34)C21` (configuration not stated), for which the IC50 in series [4], in series [5] and in series [2] was below 3 nM each time. In [6], this molecule returned a solubility of 11 µg/mL (≈ 34.4 µM).
Turning to `CN1c2ccccc2C(=O)N2CCc3c(n(C(=O)c4ccc(Cl)cc4)c4ccc(O)cc34)C21` (configuration not stated), the IC50 in [7] was below 2 nM; in series [8], 50 nM; in series [9] it was 26600 nM.
Turning to `CC(N)C(=O)Nc1ccc2[nH]c3c(c2c1)CCN1C(=O)c2ccccc2N(C)C31` (configuration not stated), in [10], the IC50 amounted to 520 nM.
Consider `CN1c2ccccc2C(=O)N2CCc3c([nH]c4ccc(NS(C)(=O)=O)cc34)C21` (configuration not stated), for which, in series [10], the IC50 was found to be 190 nM.
Take `CN1c2ccccc2C(=O)N2CCc3c([nH]c4ccc(N)cc34)C21` (configuration not stated): in series [10], the IC50 was 1800 nM. This molecule also had a solubility at 24 h in [11] of 10 µg/mL (≈ 31.4 µM).
In the case of `O=C1c2ccccc2N(c2ccccc2)C2c3[nH]c4ccccc4c3CCN12` (configuration not stated), the IC50 in [12] was 9820 nM; in [13], 2390 nM; in [14], 740 nM.
`CN1c2ccccc2C(=O)N2[C@H](C(=O)Nc3ccc(C(=O)Nc4ccccc4N)cc3)Cc3c([nH]c4ccccc34)[C@@H]12`: the IC50 in [15] turned out to be 1600 nM.
With `CN1c2cc(N)ccc2C(=O)N2CCc3c([nH]c4ccccc34)C21` (configuration not stated), the IC50 stood at 1280 nM in series [16] and 790 nM in [17].
Turning to `Cc1ccc2[nH]c3c(c2c1)CCN1C(=O)c2ccccc2N(c2ccccc2)C31` (configuration not stated), the IC50 in series [12] was 240 nM; in series [13], 920 nM; in series [14], 440 nM.
As to `CN1c2ccccc2C(=O)N2CCc3c(n(S(=O)(=O)c4ccc([N+](=O)[O-])cc4)c4ccccc34)C21` (configuration not stated), the IC50 in [18] was 18400 nM; in [19], 2680 nM.
Consider `CN1c2ccccc2C(=O)N2CCc3c([nH]c4ccc(OC(=O)CCCC(=O)Oc5ccc6[nH]c7c(c6c5)CCN5C(=O)c6ccccc6N(C)C75)cc34)C21` (configuration not stated), for which the IC50 in series [4] was 730 nM; in series [5], 32 nM; in series [20], 580 nM; in series [21] it was 200 nM.
For the molecule `COCCCCn1c2c(c3ccccc31)CCN1C(=O)c3ccccc3N(C)C21` (configuration not stated), the IC50 in [22], in series [23], in series [24], in [25] and in [26] was below 2000 nM throughout.
Consider `CN1c2ccccc2C(=O)N2CCc3c([nH]c4ccc(OC(=O)CCC(=O)Oc5ccc6[nH]c7c(c6c5)CCN5C(=O)c6ccccc6N(C)C75)cc34)C21` (configuration not stated), for which the IC50 in series [4] is 680 nM; in [5], 32 nM; in [20] it was 210 nM; in [21], 890 nM.
Take `CN1c2ccc(NCc3ccc(/C=C/C(=O)NO)cc3)cc2C(=O)N2CCc3c([nH]c4ccc(O)cc34)C21` (configuration not stated): the IC50 in series [27] came to 18 nM; in [5] it was 180 nM; in [28] it was 230 nM.
In the case of `COc1ccc2c(c1)c1c(n2C(=O)c2cc(OC)c(OC)c(OC)c2)C2Oc3ccccc3C(=O)N2CC1` (configuration not stated), the IC50 in series [29] was 6100 nM.
Take `Cc1cc2c(s1)N(C)C1c3[nH]c4ccccc4c3CCN1C2=O` (configuration not stated): the IC50 in series [30] is 9460 nM; in series [31], 10400 nM; in [32], 7770 nM; in series [33], 9020 nM.
For `CN1c2ccc(-c3ccnc(N4CCNCC4)c3)cc2C(=O)N2CCc3c([nH]c4ccccc34)C21` (configuration not stated), the IC50 in series [34] stood at 5940 nM; in series [35], 6800 nM; in [36], 2780 nM.
As for `CN1c2ccc(NCC3CCN(c4ncc(C(=O)NO)cn4)CC3)cc2C(=O)N2CCc3c([nH]c4ccc(O)cc34)C21` (configuration not stated), the IC50 in series [27] was found to be 4 nM; in [5] it was 230 nM; in series [28], 5 nM.
As to `CN1c2ccc(NC(=O)CBr)cc2C(=O)N2CCc3c([nH]c4ccccc34)C21` (configuration not stated), the results for the IC50 in series [34], in [35] and in series [36] were 28000 nM, 154000 nM and 22700 nM, respectively.
On to `CN1c2ccccc2C(=O)N2CCc3c([nH]c4ccccc34)C21` (configuration not stated), for which the half-maximal inhibitory concentration (IC50) amounted to 1630 nM in series [12], 2280 nM in series [29], 21500 nM in [13] and 780 nM in [14].

For the origin of these results see ChEMBL document CHEMBL5331086, “Natural product evodiamine-inspired medicinal chemistry: Anticancer activity, structural optimization and structure-activity relationship” (Eur J Med Chem, 2023).
